Columns and labels:
[1] = Stability test of compound (Ia) in crystalline state (purity by HPLC on storage); assay type: physicochemical; settings: 20° C. and 40° C., after 6, 17, 21 and 31 days
Description: Stability Test of Compound (Ia) in Crystalline State
About 2 g of the compound (Ia) in a crystalline form which was obtained in the same way as Example 1 was placed in sample bottles, and the sample bottles were stored at room temperature (about 20° C.) and in a room maintained at a temperature of about 40° C. Taking the original purity as 100%, after every several number of days, the purity of the compound (Ia) was measured using high-performance liquid chromatography (HPLC). The HPLC measurement conditions are shown below.
Solvent delivery system: LC-10A (manufactured by Shimadzu Corporation)
UV, VIS detector: SPD-10A (manufactured by Shimadzu Corporation)
Detection wavelength: 215 nm
Column heater: Sugai U-620 (used at 40° C., Sugai Chemical Industry Co., Ltd.)
Column: Inertsil® ODS-2 (4.6 mm diameter×250 mm length, GL Sciences, Inc.)

[2] = disclosed in Patent Document 1; cited from earlier work

Row | Structure (SMILES) | stability of the crystalline form [1] | stability in the crystalline form [2]
1 | C=CCOC(=O)C1=C(OP(=O)(OCC(Cl)(Cl)Cl)OCC(Cl)(Cl)Cl)[C@H](C)[C@@H]2[C@@H]([C@@H](C)O)C(=O)N12 [compound (Ia), allyl-(1R,5R,6S)-2-[bis(2,2,2-trichloroethyl)phosphoryloxy]-6-[(R)-1-hydroxyethyl]-1-methyl-carbapenem-3-carboxylate] | very stable without a decrease in purity | 
2 | C[C@@H](O)[C@H]1C(=O)N2C(C(=O)OCc3ccc([N+](=O)[O-])cc3)=C(OP(=O)(Oc3ccccc3)Oc3ccccc3)[C@H](C)[C@H]12 [compound (Ib)] |  | excellent stability in the crystalline form

Reference: patent publication US7919616B2, “Carbapenem compound” (priority 2005, dated 2011)
